Test results published in ChEMBL document CHEMBL1201862, “PubChem BioAssay data set” (2004).
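The compound was tested at five concentrations on cells cultured in 96-well plates, with a 48-hour exposure period. GI50: concentration for 50% inhibition of growth.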 Calls of active or inactive are those of the source. Rule as the data show it: active = GI50 up to about 1.1 µM and inactive = higher.

How the values were obtained:
Assay in all cases: growth of human tumour cells (NCI), 48 h
[1] = system: TK-10
[2] = system: Malme-3M
[3] = system: KM12
[4] = system: BT-549
[5] = system: NCI-H226
[6] = system: MDA-MB-435
[7] = system: DU-145
[8] = system: COLO 205
[9] = system: 786-0
[10] = system: ACHN
[11] = system: HCT-116
[12] = system: OVCAR-3
[13] = system: RPMI-8226
[14] = system: T47D
[15] = system: NCI-H23
[16] = system: A549
[17] = system: SK-MEL-28
[18] = system: UO-31

Measured: GI50

NCCN1C(=O)c2ccccc2C1(O)c1ccc(Cl)cc1 (stereo unspecified)
inactive: [1] 17.9 µM | [2] 14.1 µM | [3] 16.9 µM | [4] 42.6 µM | [5] 48.8 µM | [6] 15.3 µM | [7] 33.9 µM | [8] 19.6 µM | [9] 17.2 µM | [10] 23 µM | [11] 17.8 µM | [12] 23.6 µM | [13] 17.3 µM | [14] 19.4 µM | [15] 36.8 µM | [16] 23.9 µM | [17] 17.6 µM

CC(=O)OCC1OC(n2cnc3nc(Br)[nH]c(=O)c32)C(OC(C)=O)C1OC(C)=O (stereo unspecified)
inactive: [1] > 100 µM | [2] > 100 µM | [3] > 100 µM | [4] > 100 µM | [5] > 100 µM | [6] > 100 µM | [7] > 100 µM | [8] > 100 µM | [9] > 100 µM | [10] > 100 µM | [11] > 100 µM | [12] > 100 µM | [13] > 100 µM | [14] > 100 µM | [15] > 100 µM | [18] > 100 µM | [16] > 100 µM

CC(=O)Nc1cc2ccc(=O)oc2cc1Cl
inactive: [2] > 100 µM | [3] > 100 µM | [4] > 100 µM | [5] > 100 µM | [6] > 100 µM | [7] > 100 µM | [8] > 100 µM | [9] > 100 µM | [10] > 100 µM | [11] > 100 µM | [12] > 100 µM | [13] > 100 µM | [14] > 100 µM | [15] > 100 µM | [18] > 100 µM | [16] > 100 µM | [17] > 100 µM

CCN(CC)CCC(=O)c1ccc(Oc2ccc(F)cc2)cc1
inactive: [1] 17.5 µM | [2] 18.5 µM | [3] 12.2 µM | [4] 18.3 µM | [5] > 100 µM | [6] 17.5 µM | [7] 23.8 µM | [8] 19.2 µM | [9] 14.8 µM | [10] 18.4 µM | [11] 16.6 µM | [12] 17.1 µM | [13] 4.57 µM | [14] 20 µM | [15] 20.6 µM | [16] > 100 µM | [17] 16.4 µM

COc1ccccc1N1C(=O)CSC1c1cccc(Oc2ccccc2)c1 (stereo unspecified)
inactive: [1] 25.4 µM | [2] 16.3 µM | [3] 20.1 µM | [4] 17.1 µM | [5] 20.3 µM | [6] 9.82 µM | [7] 18.7 µM | [8] 18.6 µM | [9] 17.7 µM | [10] 20.9 µM | [11] 17.6 µM | [12] 21.1 µM | [14] 18.3 µM | [15] 20.8 µM | [18] 17.8 µM | [16] 21.8 µM | [17] 17.8 µM

COc1ccccc1/C=C\c1cnnc2ccccc12
inactive: [1] > 10 µM | [2] > 10 µM | [3] > 10 µM | [4] > 10 µM | [5] > 10 µM | [6] 3.49 µM | [7] > 10 µM | [8] > 10 µM | [9] > 10 µM | [10] > 10 µM | [11] 5.77 µM | [12] > 10 µM | [13] > 10 µM | [14] > 10 µM | [15] > 10 µM | [16] > 10 µM | [17] > 10 µM

CC(=O)OCC1OC(Sc2nc(-c3ccccc3)c(C#N)c(=O)n2C2OC(COC(C)=O)C(OC(C)=O)C(OC(C)=O)C2OC(C)=O)C(OC(C)=O)C(OC(C)=O)C1OC(C)=O (stereo unspecified)
inactive: [1] > 100 µM | [3] > 100 µM | [4] > 100 µM | [5] > 100 µM | [6] > 100 µM | [7] > 100 µM | [8] > 100 µM | [9] > 100 µM | [10] > 100 µM | [11] > 100 µM | [12] > 100 µM | [13] > 100 µM | [14] > 100 µM | [15] > 100 µM | [18] > 100 µM | [16] > 100 µM | [17] > 100 µM

CC(=O)c1c(CO[N+](=O)[O-])[n+]([O-])c2ccccc2[n+]1[O-]
inactive: [1] > 100 µM | [2] 53.7 µM | [4] > 100 µM | [5] 34.2 µM | [6] 79.6 µM | [7] > 100 µM | [8] 61 µM | [9] > 100 µM | [10] 61.1 µM | [11] 47.4 µM | [12] 52.8 µM | [13] 56.6 µM | [14] 61.4 µM | [15] 45.5 µM | [18] 70.6 µM | [16] > 100 µM | [17] 72.1 µM

COC(=O)[C@H](Cc1ccccc1)NC(=O)OCC1OC(n2cc(C)c(=O)[nH]c2=O)CC1N=[N+]=[N-] (stereo partly specified)
inactive: [1] > 100 µM | [2] > 100 µM | [3] > 100 µM | [4] > 100 µM | [5] > 100 µM | [6] > 100 µM | [7] > 100 µM | [8] > 100 µM | [9] > 100 µM | [10] 86.1 µM | [11] > 100 µM | [12] > 100 µM | [13] > 100 µM | [14] > 100 µM | [15] > 100 µM | [18] > 100 µM | [16] > 100 µM

COc1ccc(C2CC(=O)CC(c3ccc(OC)cc3)C23C(=O)NC(=S)NC3=O)cc1 (stereo unspecified)
inactive: [1] > 100 µM | [3] > 100 µM | [4] > 100 µM | [5] > 100 µM | [6] > 100 µM | [7] > 100 µM | [8] > 100 µM | [9] > 100 µM | [10] > 100 µM | [11] > 100 µM | [12] > 100 µM | [13] > 10 µM | [14] > 100 µM | [15] > 100 µM | [18] > 100 µM | [17] > 100 µM

O=C(OCc1ccccc1[N+](=O)[O-])N1c2ccccc2[C@@]23O[C@]24CCC[C@H]3C#C/C=C\C#C[C@H]14
inactive: [1] > 100 µM | [2] 8.38 µM | [3] > 100 µM | [4] 49.5 µM | [5] > 100 µM | [6] > 100 µM | [7] > 100 µM | [8] 67.3 µM | [9] 15.7 µM | [10] 12.8 µM | [11] 41.5 µM | [12] > 100 µM | [14] 73.8 µM | [15] 18.7 µM | [18] 21 µM | [16] 4.02 µM | [17] 44.1 µM
